Tests used:
P. aeruginosa = experiment: microbe, parasite or virus in culture; conditions: Pseudomonas aeruginosa, agent alone
Description: (§1) FICs are performed by checkerboard titrations of peptides in one dimension of a microtiter plate, and of antibiotics in the other dimension, for example. The FIC is calculated by looking at the impact of one antibiotic on the MIC of the other and vice versa. […] Preferably, an FIC of less than 0.5 is obtained for synergism. As used herein, FIC can be determined as follows: [formula]
(§2) Synergism is identified as an FIC of about ≦0.5.

A. calcoaceticus = experiment: Synergy of peptide and antibiotic, MIC and FIC (checkerboard); format: cell-based; conditions: Acinetobacter calcoaceticus, agent alone
Description: as §1, §2

E. cloacae = experiment: as above; format: cell-based; conditions: Enterobacter cloacae, agent alone
Description: as §1, §2

X. maltophila = experiment: as above; format: cell-based; conditions: agent alone
Description: as §1, §2

[1] = α helical content by CD spectra; format: physicochemical
Description: The α helical content of the peptides were measured in buffer, liposomes and 20% Hexafluoroisopropanol (HFPIP). The liposomes constituted of POPC alone or POPC PC and 30% POPG (Table 7).

Red Blood Cells = experiment: Red Blood Cell lysis; format: cell-based
[2] = Dansyl polymyxin displacement assay; format: binding; conditions: Dansyl polymyxin displacement from LPS
Source text: In addition, the peptides of SEQ ID NO: 5-8 also bound effectively to LPS with high affinity based on Dansyl polymyxin displacement assays (Table 5).

E. coli ML 35 = experiment: Inner membrane permeabilization (β-galactosidase, ONPG); format: cell-based; conditions: inner membrane permeabilization
Description: Inner membrane permeability was determined by measurement in E. coli ML 35 of β-galactosidase activity using ONPG as a substrate. Normally ONPG cannot pass across the cytoplasmic membrane to permit hydrolysis by the cytoplasmic enzyme β-galactosidase. However, cationic peptides, by permeabilizing the inner membrane, unmasks this enzyme leading to color development as ONP is released. […] Addition of citrate increased the lag time before the peptides were able to permeabilize the membranes. When the experiments were executed in cation adjusted media (CAMHB), the lag time was increased up to 30 minutes.

[3] = P. aeruginosa isolate 24, strain 34
[4] = P. aeruginosa isolate 25, strain 923-1
[5] = P. aeruginosa isolate 26, strain 3101
[6] = P. aeruginosa isolate 27, strain 14644
[7] = P. aeruginosa isolate 28, strain 15036
[8] = P. aeruginosa isolate 29, strain 15545
[9] = P. aeruginosa isolate 30, strain B3999-1
[10] = A. calcoaceticus isolate 1, strain ATCC 23055
[11] = A. calcoaceticus isolate 4, strain 28
[12] = A. calcoaceticus isolate 5, strain 8220
[13] = A. calcoaceticus isolate 6, strain 8221
[14] = A. calcoaceticus isolate 7, strain 8222
[15] = A. calcoaceticus isolate 9, strain 8224
[16] = A. calcoaceticus isolate 2, strain 23
[17] = E. cloacae isolate 12, strain ATCC 13047
[18] = E. cloacae isolate 13, strain 37-1
[19] = E. cloacae isolate 14, strain 938-2
[20] = E. cloacae isolate 15, strain B5546
[21] = E. cloacae isolate 16, strain R4148
[22] = E. cloacae isolate 17, strain R4148-2
[23] = E. cloacae isolate 18, strain 3077
[24] = E. cloacae isolate 19, strain 3356
[25] = E. cloacae isolate 20, strain 14269
[26] = E. cloacae isolate 21, strain 14661
[27] = E. cloacae isolate 22, strain 18801
[28] = X. maltophila isolate 34, strain ATCC 13637
[29] = X. maltophila isolate 36, strain 16
[30] = X. maltophila isolate 37, strain 3095
[31] = X. maltophila isolate 39, strain B3110.1
[32] = X. maltophila isolate 40, strain R1302-1
[33] = X. maltophila isolate 41, strain R4230
[34] = X. maltophila isolate 42, strain TF29-1
[35] = X. maltophila isolate 43, strain TF29-2
[36] = X. maltophila isolate 44, strain W6896-2

For `CCN1CCN(C(=O)N[C@@H](C(=O)N[C@@H]2C(=O)N3[C@@H]2SC(C)(C)[C@@H]3C(=O)O)c2ccccc2)C(=O)C1=O` [Piperacillin], the MIC (P. aeruginosa; [3]) was 1020 µg/mL, the MIC (P. aeruginosa; [4]) was 64 µg/mL and the MIC (P. aeruginosa; [5]) was 64 µg/mL. It also gave an MIC (P. aeruginosa; [6]) of 512 µg/mL, an MIC (P. aeruginosa; [7]) of 1020 µg/mL and an MIC (P. aeruginosa; [8]) of 512 µg/mL. For the same molecule, the MIC (P. aeruginosa; [9]) was 512 µg/mL, the MIC (P. aeruginosa; P. aeruginosa isolate 31, strain U7688-1) was 512 µg/mL and the MIC (P. aeruginosa; P. aeruginosa isolate 32, strain W2897-1) was 64 µg/mL. The MIC (A. calcoaceticus; [10]) was 8 µg/mL, the MIC (A. calcoaceticus; A. calcoaceticus isolate 3, strain 27) was 16 µg/mL and the MIC (A. calcoaceticus; [11]) was 4 µg/mL. The MIC (A. calcoaceticus; [12]) was 16 µg/mL, the MIC (A. calcoaceticus; [13]) was 16 µg/mL and the MIC (A. calcoaceticus; [14]) was 32 µg/mL. For the same molecule, the MIC (A. calcoaceticus; [15]) was 256 µg/mL, the MIC (A. calcoaceticus; A. calcoaceticus isolate 10, strain 8225) was 32 µg/mL and the MIC (A. calcoaceticus; A. calcoaceticus isolate 11, strain 8226) was 32 µg/mL. It also gave an MIC (A. calcoaceticus; [16]) of 1020 µg/mL, an MIC (E. cloacae; [17]) of 8 µg/mL and an MIC (E. cloacae; [18]) of 4 µg/mL. The MIC (E. cloacae; [19]) was 8 µg/mL, the MIC (E. cloacae; [20]) was 8 µg/mL and the MIC (E. cloacae; [21]) was 1020 µg/mL. For the same molecule, the MIC (E. cloacae; [22]) was 1020 µg/mL, the MIC (E. cloacae; [23]) was 8 µg/mL and the MIC (E. cloacae; [24]) was 64 µg/mL. For the same molecule, the MIC (E. cloacae; [25]) was 1020 µg/mL, the MIC (E. cloacae; [26]) was 16 µg/mL and the MIC (E. cloacae; [27]) was 4 µg/mL. The MIC (X. maltophila; [28]) was 1020 µg/mL, the MIC (X. maltophila; [29]) was 1020 µg/mL and the MIC (X. maltophila; [30]) was 512 µg/mL. It also gave an MIC (X. maltophila; X. maltophila isolate 38, strain 7901) of 512 µg/mL, an MIC (X. maltophila; [31]) of 512 µg/mL and an MIC (X. maltophila; [32]) of 512 µg/mL. It also gave an MIC (X. maltophila; [33]) of 1020 µg/mL, an MIC (X. maltophila; [34]) of 1020 µg/mL and an MIC (X. maltophila; [35]) of 1020 µg/mL. It also gave an MIC (X. maltophila; [36]) of 1020 µg/mL and an MIC (X. maltophila; X. maltophila isolate 45, strain W11291) of 512 µg/mL.
In the case of `CC[C@H](C)[C@H](NC(=O)[C@H](CC(C)C)NC(=O)[C@H](C)NC(=O)[C@@H]1CCCN1C(=O)[C@H](CC(C)C)NC(=O)CNC(=O)[C@@H](NC(=O)[C@@H](NC(=O)[C@H](CC(C)C)NC(=O)[C@@H](NC(=O)[C@H](CCCCN)NC(=O)[C@H](CCCCN)NC(=O)[C@@H](NC(=O)[C@H](C)NC(=O)[C@@H](NC(=O)[C@@H](NC(=O)[C@H](CC(C)C)NC(=O)[C@H](CCCCN)NC(=O)[C@H](CCCCN)NC(=O)[C@@H](NC(=O)[C@H](Cc1ccccc1)NC(=O)[C@H](CCC(=O)O)NC(=O)[C@H](CCCCN)NC(=O)[C@H](Cc1c[nH]c2ccccc12)NC(=O)[C@@H](N)CCCCN)[C@@H](C)CC)[C@@H](C)O)[C@@H](C)O)C(C)C)C(C)C)[C@@H](C)O)[C@@H](C)O)C(=O)N[C@@H](CO)C(=O)O` [compound 492], the “% α helicity” value ([1]; 20% HFIP) is reported as 43%, the “% α helicity” value ([1]; Buffer) is reported as 0% and the “% α helicity” value ([1]; POPC Liposomes) is reported as 42%. The “% α helicity” value ([1]; POPC/POPG Liposomes) was 19%, the “RBC Lysis” value (Red Blood Cells) was over 55 µg/mL and the Imax [2] was 48%. The “Lag Time” value (E. coli ML 35; E. coli ML 35) was 68 s and the “Rate of Hydrolysis” value (E. coli ML 35; E. coli ML 35, ONPG) was 0.23 ΔAU min^−1.
`CC(C)(O/N=C(\C(=O)N[C@@H]1C(=O)N2C(C(=O)[O-])=C(C[n+]3ccccc3)CS[C@H]12)c1csc(N)n1)C(=O)O` [Ceftazidime] showed an MIC (P. aeruginosa; P. aeruginosa isolate 23, strain ATCC 27853) of 32 µg/mL, an MIC (P. aeruginosa; [3]) of 32 µg/mL and an MIC (P. aeruginosa; [4]) of 4 µg/mL. The MIC (P. aeruginosa; [5]) was 8 µg/mL, the MIC (P. aeruginosa; [6]) was 128 µg/mL and the MIC (P. aeruginosa; [7]) was 2 µg/mL. For the same molecule, the MIC (P. aeruginosa; [8]) was 8 µg/mL, the MIC (P. aeruginosa; [9]) was 16 µg/mL and the MIC (P. aeruginosa; P. aeruginosa isolate 33, strain W5483-2) was 8 µg/mL. The MIC (A. calcoaceticus; [10]) was 2 µg/mL, the MIC (A. calcoaceticus; [11]) was 16 µg/mL and the MIC (A. calcoaceticus; [12]) was 16 µg/mL. For the same molecule, the MIC (A. calcoaceticus; [13]) was 8 µg/mL, the MIC (A. calcoaceticus; [14]) was 16 µg/mL and the MIC (A. calcoaceticus; A. calcoaceticus isolate 8, strain 8223) was 16 µg/mL. The MIC (A. calcoaceticus; [15]) was 64 µg/mL, the MIC (A. calcoaceticus; [16]) was 128 µg/mL and the MIC (E. cloacae; [17]) was 4 µg/mL. The MIC (E. cloacae; [18]) was 2 µg/mL, the MIC (E. cloacae; [19]) was 2 µg/mL and the MIC (E. cloacae; [20]) was 2 µg/mL. For the same molecule, the MIC (E. cloacae; [21]) was 512 µg/mL, the MIC (E. cloacae; [22]) was 512 µg/mL and the MIC (E. cloacae; [23]) was 2 µg/mL. The MIC (E. cloacae; [24]) was 128 µg/mL, the MIC (E. cloacae; [25]) was 512 µg/mL and the MIC (E. cloacae; [26]) was 512 µg/mL. For the same molecule, the MIC (E. cloacae; [27]) was 2 µg/mL, the MIC (X. maltophila; [28]) was 64 µg/mL and the MIC (X. maltophila; X. maltophila isolate 35, strain 6) was 64 µg/mL. For the same molecule, the MIC (X. maltophila; [29]) was 32 µg/mL, the MIC (X. maltophila; [30]) was 512 µg/mL and the MIC (X. maltophila; [31]) was 64 µg/mL. For the same molecule, the MIC (X. maltophila; [32]) was 16 µg/mL, the MIC (X. maltophila; [33]) was 4 µg/mL and the MIC (X. maltophila; [34]) was 4 µg/mL. The MIC (X. maltophila; [35]) was 4 µg/mL and the MIC (X. maltophila; [36]) was 64 µg/mL.

Source: US6465429B1, “Antimicrobial cationic peptides” (priority 1995, dated 2002)
